This note sets out measurements from patent publication US20230117328A1, “METHODS TO TREAT CANCER USING (R)-N-(3-FLUORO-4-((3-((1-HYDROXYPROPAN-2-YL)AMINO)-1H-PYRAZOLO[3,4-B]PYRIDIN-4-YL)OXY)PHENYL)-3-(4-FLUOROPHENYL)-1-ISOPROPYL-2,4-DIOXO-1,2,3,4-TETRAHYDROPYRIMIDINE-5-CARBOXAMIDE” (Array BioPharma Inc., priority 2020, published 2023).

The nature of one data set: Aqueous solubility. The class given is physicochemical.
A further data set addresses P-gp (Homo sapiens, UniProt P08183). The data set is described as follows: P-gp inhibition. Type of data set: in vitro ADME.

P-gp, sequence (P08183 whole entry): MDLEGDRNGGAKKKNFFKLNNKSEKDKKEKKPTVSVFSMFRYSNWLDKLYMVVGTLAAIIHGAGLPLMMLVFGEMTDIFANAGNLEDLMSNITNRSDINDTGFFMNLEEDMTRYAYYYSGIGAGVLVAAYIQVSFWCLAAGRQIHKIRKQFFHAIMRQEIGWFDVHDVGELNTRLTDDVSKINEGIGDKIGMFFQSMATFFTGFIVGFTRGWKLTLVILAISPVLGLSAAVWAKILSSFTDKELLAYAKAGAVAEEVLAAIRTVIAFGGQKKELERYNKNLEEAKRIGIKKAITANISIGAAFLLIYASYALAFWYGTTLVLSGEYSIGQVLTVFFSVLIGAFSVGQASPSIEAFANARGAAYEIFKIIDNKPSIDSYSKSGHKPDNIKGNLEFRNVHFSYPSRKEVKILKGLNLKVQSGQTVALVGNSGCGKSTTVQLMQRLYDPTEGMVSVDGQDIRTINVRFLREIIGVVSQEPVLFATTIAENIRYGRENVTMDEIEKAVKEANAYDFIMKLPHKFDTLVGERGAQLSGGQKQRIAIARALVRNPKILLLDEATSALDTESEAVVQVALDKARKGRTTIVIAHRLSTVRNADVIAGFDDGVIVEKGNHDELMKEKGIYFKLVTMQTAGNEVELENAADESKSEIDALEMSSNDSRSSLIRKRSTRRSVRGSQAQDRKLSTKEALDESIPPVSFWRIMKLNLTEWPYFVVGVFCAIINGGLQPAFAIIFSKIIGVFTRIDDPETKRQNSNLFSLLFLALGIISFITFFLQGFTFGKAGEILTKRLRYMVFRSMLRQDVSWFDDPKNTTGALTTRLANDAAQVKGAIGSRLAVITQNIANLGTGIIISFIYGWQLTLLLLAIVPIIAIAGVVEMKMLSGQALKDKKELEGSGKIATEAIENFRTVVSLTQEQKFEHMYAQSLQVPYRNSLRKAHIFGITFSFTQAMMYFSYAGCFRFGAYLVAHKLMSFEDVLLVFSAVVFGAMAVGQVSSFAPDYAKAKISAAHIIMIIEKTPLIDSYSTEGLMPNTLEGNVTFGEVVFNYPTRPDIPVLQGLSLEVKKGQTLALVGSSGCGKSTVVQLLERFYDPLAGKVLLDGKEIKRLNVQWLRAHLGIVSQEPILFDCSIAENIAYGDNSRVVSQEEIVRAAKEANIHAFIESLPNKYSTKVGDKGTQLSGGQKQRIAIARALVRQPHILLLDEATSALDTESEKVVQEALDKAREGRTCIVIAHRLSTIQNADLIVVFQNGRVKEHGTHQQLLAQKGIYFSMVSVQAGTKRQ

In the case of `CC(C)n1cc(C(=O)Nc2ccc(Oc3ccnc4[nH]nc(N[C@H](C)CO)c34)c(F)c2)c(=O)n(-c2ccc(F)cc2)c1=O` [Compound 1, (R)—N-(3-fluoro-4-((3-((1-hydroxypropan-2-yl)amino)-1H-pyrazolo[3,4-b]pyridin-4-yl)oxy)phenyl)-3-(4-fluorophenyl)-1-isopropyl-2,4-dioxo-1,2,3,4-tetrahydropyrimidine-5-carboxamide], the aqueous solubility result in the data set “Aqueous solubility” was “pH dependent”. Also, the P-gp inhibitor status entry on P-gp is reported as “inhibitor of P-gp”.
